Results from US20060079497A1, “Lavendamycin analogues and methods of synthesizing and using lavendamycin analogues” (Ball State University, priority 2004, published 2006).
Several values for one entry are separate records, joined by “and”; a condition that tells them apart may be missing. Equal values may be shown once. Read-outs that look alike come from different tables or passages of the source.

Assays:
[1] = Cytotoxicity assay (MTT), human lymphocytic cell lines, pooled data; assay type: cell-based; conditions: H-9 and CEM inhibited by 50%, read-out: Mean CC50 (Human Cell Lines) ± SEM (no. of expts)
Method: (§1) Normal murine spleen cells were washed in HBSS, cultured at 2.5×10^6 or 5×10^6 cells per mL in RPMI 1640 (with Hepes) complete medium with 2 mM-L-glutamine, 1 mM sodium pyruvate, 0.05 mM β-mercaptoethanol, penicillin, streptomycin, and amphotericin B with 10% fetal calf serum and Concanavalin A (ConA) at 2.5 μg/mL in a 96-well microtiter plate. A range of diluted analogs were added to triplicate culture wells and the cells were incubated at 37° C. in 5% CO2. Wells containing cells, media and ConA were used as controls. Forty-eight hours post incubation, 20 μL of the vital dye MTT (3-[4,5-Dimethylthiazol-2-yl]-2,5-diphenyltetrazolium bromide; thiazolyl blue) at 5 mg/mL was added to each well and the cultures re-incubated for 4-6 hours. Following centrifugation, the supernatants were decanted and the stained cells were resuspended in 100 μL of 0.4% HCl acidified isopropanol. The optical densities of each well were read at 600 nm using a Cambridge Technologies series 700 microplate reader. The human lymphocytic cell lines CCRF-CEM (ATCC: HTB 176) and H-9 (ATCC: CCL 119) were subcultured from recently cultured cells grown in complete RPMI 1640 medium as described above but without the β-mercaptoethanol and ConA at 6.25×10^5 and 2×10^6 per mL in a 96 well culture plate. These cell numbers represented log phase and early stationary phase of the freshly cultured cells. As these cell lines rapidly reproduce without mitogenic stimulation, Con A was not used. A range of analogues or media alone was added in triplicate to the cultures and the cultures incubated, pulsed with MTT, harvested and their growth estimated as described above for the murine cultures. The CC50 or the concentration of drug which inhibited cell growth as estimated by MTT formazan production to 50% of that of untreated control cells was determined by linear interpolation for each lavendamycin analog.

HIV-RT = target: T1, HIV-RT (Human immunodeficiency virus type 1 group M subtype B, UniProt P04585); test: Checkerboard combination of lavendamycin analogs with AZT-triphosphate in HIV-RT enzyme assay (Chou and Talalay); assay type: biochemical
T1 construct: 1 unit/mL of HIV-RT (Worthington Biochemical Corp., Freehold, N.J.); purchased Worthington Biochemical Corp., Freehold, N.J
Method: The results were analyzed by the method of Chou and Talalay based on the median-effect principle and represented by combination indices (CI) determined for each of the two drug combinations (e.g., see: Chou, T. C.; Talalay, P. “Quantitative Analysis of Dose-Effect Relationships: The Combined Effects of Multiple Drugs or Enzyme Inhibitors,” Adv. Enzyme Regul., 1984, 22, 27-65; and Chou, J.; Chou, T. C. “Dose-Effect Analysis with Microcomputers: Quantitation of ED50, LD50, Synergism, Antagonism, Low-Dose Risk, Receptor-Ligand Binding and Enzyme Kinetics,” In: A computer Software for IBM-PC and Manual, Cambridge, UK, Elsevier-Biosoft, 1987). This method involves the plotting of dose-effect curves for each agent and for each of the different combinations of the agents. The slope of the median-effect plot, which signifies the shape of the dose-effect curve, and the x intercept of the plot, which signifies the potency of each compound alone and each combination, were then used for a computerized calculation of a combination index.
The assay procedure described below is adapted from Okada et al. (Okada, H.; Mukai, H.; Inouye, Y; Nakamura, S. “Biological Properties of Streptonigrin Derivatives II. Inhibition of Reverse Transcriptase Activity,” J. Antibiot., 1986, 39, 306-308). The lavendamycin analogs were initially dissolved in DMSO at a concentration of 1 mg/mL. Occasionally, mild sonication and heat were used to dissolve the less soluble compounds. The dissolved analogs were then serially diluted in distilled water to achieve concentrations in the final reaction mixture ranging from 0.5-15 μM. In addition to the lavendamycin analogs, the final reaction mixture contained 100 mM Tris-HCl (pH 8.0), 5 mM MgCl2, 5 mM dithiothreitol, 60 mM NaCl, 0.2 mM [^3H] thymidine triphosphate(5 μCi well), 4 μg/mL poly (rA)-oligo(dT)12-18 (Amersham Pharmacia Biotech, Piscataway, N.J.) and 1 unit/mL of HIV-RT (Worthington Biochemical Corp., Freehold, N.J.) in a total volume of 300 μL. For each assay, the reaction mixture containing 8× buffer, double distilled H2O, ^3HTTP, template-primer and HIV-RT was pre-mixed in a 15-mL sterile tube in quantities required for the particular experiment. After adding the enzyme, the reaction mixture was mixed and kept on ice. The inhibitors, either AZT(Moravek Biochemicals, Brea, Calif.), analogs or both were added to appropriate wells in a 24 well microtiter plate and ddH2O was added to each well to bring the volume of all test wells to 100 μL. Two hundred μL of the chilled reaction mixture was then added to each of the test wells, mixed, and incubated for 1 hr at 37° C. Several control wells with no inhibitors were included on each test plate. After stopping the reactions with 25 μL 0.1 M EDTA, triplicate samples of 15 μL from each test well were spotted on DE81 ion exchange filter paper squares (Whatman Paper, Maidstone, England). After drying, each filter was washed for 10 minutes three times with 5% TCA-NHPO4, three times with 0.6M NaCl-[…] Na Citrate, one time with ddH2O and one time with 95% ethanol. After drying the individual filter papers were added to 5 mL Scintiverse E (Fisher Scientific, Chicago, Ill.) scintillation fluid and the amount of 3H-TTP uptake measured as counts per minute on a Beckman liquid scintillation counter. […] The results were then analyzed using Calcusyn, a windows software program for dose effect analysis designed by T. -C. Chou and M. P. Hayball and published by Biosoft® (UK).

[2] = Cytotoxicity assay (MTT), normal murine spleen cells stimulated with concanavalin A; assay type: cell-based; conditions: normal mouse spleen stimulated with concanavalin A inhibited by 50%, read-out: Mean CC50 (Normal Mouse Spleen) ± SEM (no. of expts)
Method: as §1

[3] = analogue 0.25 μM + AZT 0.007 μM, Trial 1
[4] = analogue 0.25 μM + AZT 0.007 μM, Trial 2
[5] = analogue 0.25 μM + AZT 0.01 μM, Trial 1
[6] = analogue 0.25 μM + AZT 0.01 μM, Trial 2
[7] = analogue 0.25 μM + AZT 0.02 μM, Trial 1
[8] = analogue 0.25 μM + AZT 0.02 μM, Trial 2
[9] = analogue 0.5 μM + AZT 0.007 μM, Trial 1
[10] = analogue 0.5 μM + AZT 0.007 μM, Trial 2
[11] = analogue 0.5 μM + AZT 0.01 μM, Trial 1
[12] = analogue 0.5 μM + AZT 0.01 μM, Trial 2
[13] = analogue 0.5 μM + AZT 0.02 μM, Trial 1
[14] = analogue 0.5 μM + AZT 0.02 μM, Trial 2
[15] = analogue 0.75 μM + AZT 0.01 μM, Trial 1
[16] = analogue 0.75 μM + AZT 0.01 μM, Trial 2
[17] = analogue 0.75 μM + AZT 0.02 μM, Trial 1
[18] = analogue 0.75 μM + AZT 0.02 μM, Trial 2
[19] = analogue 1.5 μM + AZT 0.007 μM, Trial 1
[20] = analogue 1.5 μM + AZT 0.007 μM, Trial 2
[21] = analogue 1.5 μM + AZT 0.01 μM, Trial 1
[22] = analogue 1.5 μM + AZT 0.01 μM, Trial 2
[23] = analogue 1.5 μM + AZT 0.02 μM, Trial 1
[24] = analogue 1.5 μM + AZT 0.02 μM, Trial 2

SMILES: CCCCOC(=O)c1cc2c([nH]c3ccccc32)c(-c2ccc3c(n2)C(=O)C(NC(=O)CCC)=CC3=O)n1 [Compound 12, 7-N-n-Butyryidemethyllavendamycin n-Butyl Ester]
- CC50 at 48 h [1]: 50 ± 15 µM
- Combination index (HIV-RT): 1.30 and 1.60
- Combination index (HIV-RT; [3]): 0.82
- Combination index (HIV-RT; [4]): 0.83
- Combination index (HIV-RT; [5]): 0.58
- Combination index (HIV-RT; [6]): 0.58
- Combination index (HIV-RT; [7]): 0.59
- Combination index (HIV-RT; [8]): 0.50
- Combination index (HIV-RT; [9]): 0.88
- Combination index (HIV-RT; [10]): 0.71
- Combination index (HIV-RT; [11]): 0.76
- Combination index (HIV-RT; [12]): 0.76
- Combination index (HIV-RT; [13]): 0.85
- Combination index (HIV-RT; [14]): 0.93
- Combination index (HIV-RT; [15]): 0.86
- Combination index (HIV-RT; [16]): 0.99
- Combination index (HIV-RT; [17]): 1.00
- Combination index (HIV-RT; [18]): 0.92
- Combination index (HIV-RT; [19]): 1.30
- Combination index (HIV-RT; [20]): 1.20
- Combination index (HIV-RT; [21]): 0.81
- Combination index (HIV-RT; [22]): 0.91
- Combination index (HIV-RT; [23]): 1.10
- Combination index (HIV-RT; [24]): 0.96
- CC50 at 48 h [2]: 81 ± 17 µM

SMILES: COC(=O)c1nc(-c2ccc3c(n2)C(=O)C(NC(C)=O)=CC3=O)c2[nH]c3ccccc3c2c1C [Compound 11, 7-acetyllavendamycin methyl ester]
- CC50 at 48 h ([1]; human lymphocytic cell lines CCRF-CEM and H-9, pooled data): 31 ± 2 µM
- Combination index (HIV-RT): 1.00 and 1.30
- Combination index (HIV-RT; [3]): 0.57
- Combination index (HIV-RT; [4]): 0.48
- Combination index (HIV-RT; [5]): 0.94
- Combination index (HIV-RT; [6]): 0.89
- Combination index (HIV-RT; [7]): 0.90
- Combination index (HIV-RT; [8]): 0.68
- Combination index (HIV-RT; [9]): 0.81
- Combination index (HIV-RT; [10]): 0.71
- Combination index (HIV-RT; [11]): 0.84
- Combination index (HIV-RT; [12]): 0.76
- Combination index (HIV-RT; [13]): 0.72
- Combination index (HIV-RT; [14]): 0.84
- Combination index (HIV-RT; [15]): 1.20
- Combination index (HIV-RT; [16]): 1.08
- Combination index (HIV-RT; [17]): 0.94
- Combination index (HIV-RT; [18]): 0.84
- Combination index (HIV-RT; [19]): 1.40
- Combination index (HIV-RT; [20]): 1.23
- Combination index (HIV-RT; [21]): 1.40
- Combination index (HIV-RT; [22]): 1.12
- Combination index (HIV-RT; [23]): 1.17
- Combination index (HIV-RT; [24]): 1.08
- CC50 at 48 h ([2]; normal murine spleen cells stimulated with concanavalin A): 62 ± 5 µM
